# Laboratory results reported in patent US20260158177A1, “COMPOUNDS SPECIFIC TO GRANZYME B AND USES THEREOF” (CYTOSITE BIOPHARMA INC., priority 2021, published 2026).
# Numbered stars: 1 amine (or outer) side, 2 acyl side, 3 side chain; on linkers, the order of the positions; unused ones are H or OH. Square brackets hold non-standard residues; d marks the D form. Peptide text beside a SMILES is read from it. * marks the point of attachment. NOTA(AlF) = O=C1CN2CCN(CCN(CC(=O)*)CC2)CC(=O)[O][Al]([F])[O]1; Haic = O=C1[C@@H](N[*:1])CCc2cccc3c2N1[C@H](C(=O)[*:2])C3; NH(5-HO-2-oxo-oxolan-4-yl) = O=C1CC(N*)C(O)O1; X1 = O=C(CN1CCN([*:1])CC1)[*:2]
# Target: T1, human granzyme B (Homo sapiens, UniProt P10144)
# T1 construct: from tissue; host or cells: human lymphocytes
# T1 sequence (P10144 21-247): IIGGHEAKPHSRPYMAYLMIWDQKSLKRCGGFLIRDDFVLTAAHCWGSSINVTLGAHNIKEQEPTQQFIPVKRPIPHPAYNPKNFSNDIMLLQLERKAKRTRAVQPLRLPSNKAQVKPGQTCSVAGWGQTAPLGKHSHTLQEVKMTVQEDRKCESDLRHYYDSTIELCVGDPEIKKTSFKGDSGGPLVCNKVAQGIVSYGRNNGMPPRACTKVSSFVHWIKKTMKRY
# Assay: Competitive binding assay of human granzyme B with Compound ^18F-21-Al radioligand
# Conditions: competition with 20 nM Compound ^18F-21-Al, human lymphocyte GZB, 37° C., 90 minutes
# Protocol: Purpose: To perform competitive binding assays with human granzyme B using Compound ^18F-21-Al to determine IC50 values of potential granzyme B ligands
# Initial Plate Preparation (including total binding and non-specific binding): • 1. 78 μL of reaction buffer, as described above, is added to each well in a 96 well plate • 2. For wells used to examine total binding (defined as the binding of the radioligand in the absence of competitors), 2 μL of DMSO is added to give 1% final DMSO concentration for all wells • 3. For wells used to examine non-specific binding (defined as the binding of the radioligand in the presence of 10 μM 21), 2 μL of 1 mM Compound 21 is added to give a final concentration of 10 μM
# • 1. Granzyme B (GZB, human lymphocyte) is diluted to 0.5 μg/mL using reaction buffer as described above • 2. 100 μL of 0.5 μg/mL diluted human GzB is added to each well, giving 50 ng per well and a final concentration of 0.25 μg/mL
# • 1. DMSO or water is added to the respective compound vial to make 1 mM compound stock solution • 2. 1 mM compound stock solution is serially diluted by ½ log (3.16 fold) by adding 18.5 μL of compound stock to 40 μL of DMSO, mixing by pipetting up and down, and transferring 18.5 μL of the mixture to 40 μL of DMSO. This process is repeated to create 10 dilution points for test compounds. • 3. For wells used to examine ligand binding competition, 2 μL of each dilution is dispensed into the 96 well plates prepared as described above, giving a further dilution of 1/100.
# • 1. 200 nM of Compound ^18F-21-Al (10× radioligand stock) is prepared in reaction buffer, aiming for approximately 2 million CPM per 20 μL of solution (input). • 2. 20 μL of radioligand stock is dispensed into each well to give a final concentration per well of 20 nM.
# • 1. All 96 wells should have a final volume of 200 μL, and the assay plates are incubated at 37° C. for 90 minutes. • 2. All samples from the assay plates are transferred to MultiScreenHTS FB plates that have been presoaked in PBS buffer, pH 7.4, and filtered using a vacuum manifold. An additional 150 μL of PBS buffer is added to each well in the assay plates and combined to ensure transfer of any remaining samples • 3. MultiScreenHTS FB plates are washed 3× with 150 μL of PBS buffer. • 4. All filters are separated and transferred to individual tubes using Multiscreen punch tips and the Millipore multiple punch apparatus • 5. The sample set is analyzed using the Wizard 2480 automatic gamma-counter [Perkin Elmer] through a [^18F]-specific profile. Values are reported as decay-corrected counts per minute (CPM). • 6. Resulting CPM values are normalized and converted to % inhibition by the following equation:
# [formula] • *the total bound fraction is typically less than 10% of the added radioligand under such assay conditions. • Resulting % inhibition values were plotted using the software GraphPad Prism 8.4.3 using the One site—Fit log IC50 equation to determine the IC50 value for each ligand.
# [formula] • Y=% Inhibition • X=Log concentration of the cold competing ligand (M) • A=minimum Y (0%) • B=maximum Y (100%) • Log IC50=Log concentration of cold competing ligand (M) at half-way between minimum and maximum Y
row,SMILES,IC50 [nM]
1,"CC[C@H](C)[C@H](NC(=O)CCNC(=O)CCNC(=O)[C@@H](CCC(=O)O)NC(=O)CN1CCC(CN2CCN3CCN(CC2)CC(=O)[O][Al]([F])[O]C(=O)C3)CC1)C(=O)N[C@H]1CCc2cccc3c2N(C1=O)[C@H](C(=O)NC1CC(=O)OC1O)C3 (stereo partly drawn) [Compound 1-Al, 2,2′-(7-((1-((4R,15S,16S)-4-(2-carboxyethyl)-15-(((3S,6S)-6-((2-hydroxy-5-oxotetrahydrofuran-3-yl)carbamoyl)-4-oxo-1,2,3,4,6,7-hexahydroazepino[3,2,1-hi]indol-3-yl)carbamoyl)-16-methyl-2,5,9,13-tetraoxo-3,6,10,14-tetraazaoctadecyl)piperidin-4-yl)methyl)-1,4,7-triazonane-1,4-diyl)diacetic acid, aluminum fluoride complex (1:1)]",5.7
2,"CC[C@H](C)[C@H](NC(=O)CCNC(=O)CCNC(=O)CN(CC(=O)O)C(=O)CN1CCC(CN2CCN3CCN(CC2)CC(=O)[O][Al]([F])[O]C(=O)C3)CC1)C(=O)N[C@H]1CCc2cccc3c2N(C1=O)[C@H](C(=O)NC1CC(=O)OC1O)C3 (stereo partly drawn) [Compound 5-Al, 2,2′-(7-((1-((15S,16S)-3-(carboxymethyl)-15-(((3S,6S)-6-((2-hydroxy-5-oxotetrahydrofuran-3-yl)carbamoyl)-4-oxo-1,2,3,4,6,7-hexahydroazepino[3,2,1-hi]indol-3-yl)carbamoyl)-16-methyl-2,5,9,13-tetraoxo-3,6,10,14-tetraazaoctadecyl)piperidin-4-yl)methyl)-1,4,7-triazonane-1,4-diyl)diacetic acid, aluminum fluoride complex (1:1)]",5.7
3,"CC[C@H](C)[C@H](NC(=O)CC[C@@H](NC(=O)CN1CCN(C(=O)CN2CCN3CCN(CC2)CC(=O)[O][Al]([F])[O]C(=O)C3)CC1)C(=O)O)C(=O)N[C@H]1CCc2cccc3c2N(C1=O)[C@H](C(=O)NC1CC(=O)OC1O)C3 (stereo partly drawn) [Compound 14-Al, 2,2′-(7-(2-(4-(2-(((1R)-1-carboxy-4-(((2S,3S)-1-(((3S,6S)-6-((2-hydroxy-5-oxotetrahydrofuran-3-yl)carbamoyl)-4-oxo-1,2,3,4,6,7-hexahydroazepino[3,2,1-hi]indol-3-yl)amino)-3-methyl-1-oxopentan-2-yl)amino)-4-oxobutyl)amino)-2-oxoethyl)piperazin-1-yl)-2-oxoethyl)-1,4,7-triazonane-1,4-diyl)diacetic acid, aluminum fluoride complex (1:1)]",2.7
4,"CC[C@H](C)[C@H](NC(=O)CCNC(=O)CCNC(=O)CN(CC(=O)O)C(=O)CN1CCN(C(=O)CN2CCN3CCN(CC2)CC(=O)[O][Al]([F])[O]C(=O)C3)CC1)C(=O)N[C@H]1CCc2cccc3c2N(C1=O)[C@H](C(=O)NC1CC(=O)OC1O)C3 (stereo partly drawn) [Compound 13-Al, 2,2′-(7-(2-(4-((15S,16S)-3-(carboxymethyl)-15-(((3S,6S)-6-((2-hydroxy-5-oxotetrahydrofuran-3-yl)carbamoyl)-4-oxo-1,2,3,4,6,7-hexahydroazepino[3,2,1-hi]indol-3-yl)carbamoyl)-16-methyl-2,5,9,13-tetraoxo-3,6,10,14-tetraazaoctadecyl)piperazin-1-yl)-2-oxoethyl)-1,4,7-triazonane-1,4-diyl)diacetic acid, aluminum fluoride complex (1:1)]",4.2
5,"CC[C@H](C)[C@H](NC(=O)CNC(=O)CNC(=O)[C@H](CCC(=O)O)NC(=O)CN1CCN(C(=O)CN2CCN3CCN(CC2)CC(=O)[O][Al]([F])[O]C(=O)C3)CC1)C(=O)N[C@H]1CCc2cccc3c2N(C1=O)[C@H](C(=O)NC1CC(=O)OC1O)C3 (stereo partly drawn) [Compound 8-Al, 2,2′-(7-(2-(4-((4S,13S,14S)-4-(2-carboxyethyl)-13-(((3S,6S)-6-((2-hydroxy-5-oxotetrahydrofuran-3-yl)carbamoyl)-4-oxo-1,2,3,4,6,7-hexahydroazepino[3,2,1-hi]indol-3-yl)carbamoyl)-14-methyl-2,5,8,11-tetraoxo-3,6,9,12-tetraazahexadecyl)piperazin-1-yl)-2-oxoethyl)-1,4,7-triazonane-1,4-diyl)diacetic acid, aluminum fluoride complex (1:1)] ({NOTA(AlF)}-[X1]EGGI[Haic]-{NH(5-HO-2-oxo-oxolan-4-yl)})",6.5
6,"CC[C@H](C)[C@H](NC(=O)CCNC(=O)CCNC(=O)[C@@H](CCC(=O)O)NC(=O)[C@@H](CCC(=O)O)NC(=O)CN1CCN(C(=O)CN2CCN3CCN(CC2)CC(=O)[O][Al]([F])[O]C(=O)C3)CC1)C(=O)N[C@H]1CCc2cccc3c2N(C1=O)[C@H](C(=O)NC1CC(=O)OC1O)C3 (stereo partly drawn) [Compound 16-Al, 2,2′-(7-(2-(4-((4R,7R,18S,19S)-4,7-bis(2-carboxyethyl)-18-(((3S,6S)-6-((2-hydroxy-5-oxotetrahydrofuran-3-yl)carbamoyl)-4-oxo-1,2,3,4,6,7-hexahydroazepino[3,2,1-hi]indol-3-yl)carbamoyl)-19-methyl-2,5,8,12,16-pentaoxo-3,6,9,13,17-pentaazahenicosyl)piperazin-1-yl)-2-oxoethyl)-1,4,7-triazonane-1,4-diyl)diacetic acid, aluminum fluoride complex (1:1)]",4.2
7,"CC[C@H](C)[C@H](NC(=O)CC[C@H](NC(=O)CN1CCN(C(=O)CN2CCN3CCN(CC2)CC(=O)[O][Al]([F])[O]C(=O)C3)CC1)C(=O)O)C(=O)N[C@H]1CCc2cccc3c2N(C1=O)[C@H](C(=O)NC1CC(=O)OC1O)C3 (stereo partly drawn) [Compound 17-Al, 2,2′-(7-(2-(4-(2-(((1S)-1-carboxy-4-(((2S,3S)-1-(((3S,6S)-6-((2-hydroxy-5-oxotetrahydrofuran-3-yl)carbamoyl)-4-oxo-1,2,3,4,6,7-hexahydroazepino[3,2,1-hi]indol-3-yl)amino)-3-methyl-1-oxopentan-2-yl)amino)-4-oxobutyl)amino)-2-oxoethyl)piperazin-1-yl)-2-oxoethyl)-1,4,7-triazonane-1,4-diyl)diacetic acid, aluminum fluoride complex (1:1)]",2.7
8,"CC[C@H](C)[C@H](NC(=O)CCNC(=O)[C@@H](CCC(=O)O)NC(=O)CCNC(=O)CN1CCC(CN2CCN3CCN(CC2)CC(=O)[O][Al]([F])[O]C(=O)C3)CC1)C(=O)N[C@H]1CCc2cccc3c2N(C1=O)[C@H](C(=O)NC1CC(=O)OC1O)C3 (stereo partly drawn) [Compound 7-Al, 2,2′-(7-((1-((8R,15S,16S)-8-(2-carboxyethyl)-15-(((3S,6S)-6-((2-hydroxy-5-oxotetrahydrofuran-3-yl)carbamoyl)-4-oxo-1,2,3,4,6,7-hexahydroazepino[3,2,1-hi]indol-3-yl)carbamoyl)-16-methyl-2,6,9,13-tetraoxo-3,7,10,14-tetraazaoctadecyl)piperidin-4-yl)methyl)-1,4,7-triazonane-1,4-diyl)diacetic acid, aluminum fluoride complex (1:1)]",6.7
9,"CC[C@H](C)[C@H](NC(=O)COCCNC(=O)[C@@H](CCC(=O)O)NC(=O)CN1CCN(C(=O)CN2CCN3CCN(CC2)CC(=O)[O][Al]([F])[O]C(=O)C3)CC1)C(=O)N[C@H]1CCc2cccc3c2N(C1=O)[C@H](C(=O)NC1CC(=O)OC1O)C3 (stereo partly drawn) [Compound 9-Al, 2,2′-(7-(2-(4-((4R,13S,14S)-4-(2-carboxyethyl)-13-(((3S,6S)-6-((2-hydroxy-5-oxotetrahydrofuran-3-yl)carbamoyl)-4-oxo-1,2,3,4,6,7-hexahydroazepino[3,2,1-hi]indol-3-yl)carbamoyl)-14-methyl-2,5,11-trioxo-9-oxa-3,6,12-triazahexadecyl)piperazin-1-yl)-2-oxoethyl)-1,4,7-triazonane-1,4-diyl)diacetic acid, aluminum fluoride complex (1:1)]",3.5 ± 0.78
